# Laboratory results as given in patent US20110287108A1 (priority 2008, published 2011).
# Counter-ions that a name gives are not always drawn. Like-named read-outs stand apart in the source and are kept apart here.
# System: Phytophthora infestans
# Assay type: in vivo
# Conditions: tomato plants
# [1] = protective, 3 days after inoculation, 0.25 ppm a.i.
# [2] = protective, 3 days after inoculation, 12.5 ppm a.i.
# [3] = protective, 3 days after inoculation, 0.5 ppm a.i.
Compound,Efficacy in % found [1] [%],Efficacy in % found [2] [%],other results
CC(C)[C@H](NC(=O)O)C(=O)N[C@H](C)c1nc2ccc(F)cc2s1 [benthiavalicarb],16,,
N#Cc1c(Cl)c(Cl)c(Cl)c(C#N)c1Cl [chlorothalonil],,19,
OP(O)O [phosporous acid],,33,
CCCOC(=O)NCCCN(C)C [propamocarb-HCl],,,"Efficacy in % found (protective, 3 days after inoculation, 25 ppm a.i.): 24%"
[Cl-].[Cu+2].[Cu+2].[OH-].[OH-].[OH-] [copper oxychloride],,58,
CCC(C)(NC(=O)c1cc(Cl)c(C)c(Cl)c1)C(=O)CCl (stereo not drawn) [zoxamide],18,,
CCCCCCNc1cccc(CON=C(c2ccccc2)c2nnnn2C)n1 [N-hexyl-6-[({[(1-methyl-1H-tetrazol-5-yl)(phenyl)methylene]amino}oxy)-methyl]pyridin-2-amine],48,,Efficacy in % found [3]: 63%
fosetyl-aluminium,,42,
O=C(NCc1ncc(C(F)(F)F)cc1Cl)c1c(Cl)cccc1Cl [fluopicolide],4,,
CCCCCNc1cccc(CON=C(c2ccccc2)c2nnnn2C)n1 [6-[({[(1-methyl-1H-tetrazol-5-yl)(phenyl)methylene]amino}oxy)methyl]-N-pentylpyridin-2-amine],,,"Efficacy in % found (protective spray, evaluated 3 days after inoculation, application rate cell empty): 69%"
COc1ccc(C(=CC(=O)N2CCOCC2)c2ccc(Cl)cc2)cc1OC [dimethomorph],,,Efficacy in % found [3]: 35%
